Biological target: T1, HIV-1 integrase (Human immunodeficiency virus type 1 group M subtype B, UniProt P04585)
T1 construct: pre-incubated with 15 pmol integrase (IN) at 37 °C
Assay: HIV-1 integrase strand transfer inhibition assay (microplate, magnetic beads)
Type: biochemical, human immunodeficiency virus-1 (HIV-1)
Settings: for HIV-1 integrase inhibition activity (in words): qualitative summary of the integrase assay; for IC50: strand transfer reaction, microplate screening method, positive control baicalein, read-out: IC50, inhibition activity against HIV-1 integrase
Procedure: The assays were performed in a 96-well microplate (Corning, New York, NY, USA) in a final volume of 50 μL. The wells were washed once with the reaction buffer (25 mM/L PIPES, pH 7.0, 10 mM/L β-mercaptoethanol, 5% (w/v) glycerol, 0.1 g/L bovin serum albumin (BSA), and 10 mM/L MnCl2). The compounds were diluted with dimethyl sulfoxide (DMSO) to a final concentration of 10% DMSO into the reaction volume (v/v) and pre-incubated with 15 pmol integrase (IN) at 37 °C in the reaction buffer in the absence of MnCl2 (10 mM/L) for 10 min. Subsequently, 1.5 pM donor DNA and 15 pM target DNA were added and the reaction was initiated. After incubation for 1 h at 37 °C, […] magnetic particles (6.7 × 10^8 beads/mL) and 51.5 μL binding buffer (10 mM/L Tris–HCl, pH 7.6, 2 M/LNaCl, 20 mM/L ethylene diamine tetraacetic acid (EDTA), and 0.1% [w/v] Tween 20) were added and incubated at 20 °C for 15 min. Then the wells holding the mixture were placed in a magnetic concentrator, the supernatant was discarded, and the wells were washed 3 times with phosphate buffered saline (PBS) containing 0.1% Tween20(PBST). Subsequently, 100 μL of 1:5000 diluted alkaline phosphatase (AP) conjugate anti-DIG antibody was added and incubated for 30 min at 37 °C. Finally, the wells were washed 3 times with PBST and the magnetic beads were transferred into fresh wells; 100 μL P-nitrophenyl phosphate (P-NPP) substrate (0.1 M/L Na2CO3, pH 9.5, 6.7 mM/L P-NPP, and 2 mM/L MgCl2) was added. The plates were read at 405 nm with a Model 680 microplate reader (Bio-Rad, Hercules, CA, USA). In the assay, baicalein was used as the positive control.
The IC50 values of the samples were calculated based on the assay results after curve fitting according to a non-linear regression.

Q: For COc1cc([C@@H]2OC[C@@]3(O)[C@@H]2CO[C@H]3c2cc(OC)c(O)c(OC)c2)ccc1O [Compound 1, (+)-8-hydroxy-7,7'-bis-epi-fraxiresinol], which “HIV-1 integrase inhibition activity (in words)” value is on record?
A: weak HIV-1 integrase inhibitory activities

Q: And the IC50?
A: 53.3 µM

Q: COc1cc([C@@H]2OC[C@@]3(O)[C@@H]2CO[C@H]3c2ccc(O)c(OC)c2)ccc1O [Compound 2, (+)-8-hydroxy-7,7'-bis-epi-pinoresinol] was tested. Which “HIV-1 integrase inhibition activity (in words)” value did it give?
A: weak HIV-1 integrase inhibitory activities

Q: What about the IC50 of the same molecule?
A: 61.7 µM

Q: For C=CC1C(OC2OC(CO)C(O)C(O)C2O)OC=C(C(=O)OC2CC3C(C(=O)OC)=COC(OC4OC(CO)C(O)C(O)C4O)C3C2C)C1CC1OC(C)C(C)O1 (stereo not drawn) [Compound 7, dipsanoside M], which “HIV-1 integrase inhibition activity (in words)” value is on record?
A: weak HIV-1 integrase inhibitory activities

Q: And the IC50?
A: 84 µM

Q: What does the source list for C=CC1C(OC2OC(CO)C(O)C(O)C2O)OC=C(C(=O)OC2CC3C(C(=O)OC)=COC(OC4OC(CO)C(O)C(O)C4O)C3C2C)C1CC1OC(C)C(C)O1 (stereo not drawn) [Compound 8, dipsanosides N]?
A: HIV-1 integrase inhibition activity (in words): weak HIV-1 integrase inhibitory activities; IC50: 92.7 µM

Q: Which IC50 does the source give for O=c1cc(-c2ccccc2)oc2cc(O)c(O)c(O)c12 [baicalein, reference compound] here?
A: 1.37 µM

From paper PMC6272778, “New Lignans and Iridoid Glycosides from Dipsacus asper Wall” (Molecules, 2015)
